Experimental data reported in patent publication US9277761B2, “Nutrition trace element composition” (priority 2003, dated 2016).
Where two headings read alike, the source gives them in different places.

Assays:
[1] = test system: humans; settings: cited from earlier work; for Outcome of inadvertent intravenous infusion: person
[2] = Study of 52 patients receiving parenteral nutrition: zinc level in serum and whole blood; format: in vivo, humans
[3] = cited from earlier work
[4] = first 24 hours, cited from earlier work
[5] = 20 healthy young men, 160 mg zinc/d for 5 weeks
[6] = Ø, entire observation period (3-18 days)

## [Zn] [Zinc]
[1]; 150 mg of zinc a day over 2 years
  Effect of repeated administration: copper deficiency
[1]; 1.5 g zinc over 60 hours
  Outcome of inadvertent intravenous infusion: ended fatally
[1]; [5]
  HDL cholesterol level: significantly reduced
  Total cholesterol, triglycerides and LDL cholesterol: normal levels
[1]; healthy young women, 100 mg daily for 8 weeks
  Effect on the blood lipid levels: no effect
[1]; toxic range not starting until quantities in the grams
  Toxicity: low toxicity
[2]; Day 1
  Zinc in serum, patients Above reference range: 4%
  Zinc in serum, patients Below reference range: 76%
  Zinc in serum, patients Within reference range: 20%
  Zinc in whole blood, patients Above reference range: 10%
  Zinc in whole blood, patients Below reference range: 6%
  Zinc in whole blood, patients Within reference range: 84%
[2]; Day 2
  Zinc in serum, patients Above reference range: 2%
  Zinc in serum, patients Below reference range: 85%
  Zinc in serum, patients Within reference range: 13%
  Zinc in whole blood, patients Above reference range: 8%
  Zinc in whole blood, patients Below reference range: 18%
  Zinc in whole blood, patients Within reference range: 75%
[2]; Day 3
  Zinc in serum, patients Above reference range: 0%
  Zinc in serum, patients Below reference range: 78%
  Zinc in serum, patients Within reference range: 22%
  Zinc in whole blood, patients Above reference range: 8%
  Zinc in whole blood, patients Below reference range: 12%
  Zinc in whole blood, patients Within reference range: 80%
[2]; Day 4
  Zinc in serum, patients Above reference range: 0%
  Zinc in serum, patients Below reference range: 86%
  Zinc in serum, patients Within reference range: 14%
  Zinc in whole blood, patients Above reference range: 5%
  Zinc in whole blood, patients Below reference range: 14%
  Zinc in whole blood, patients Within reference range: 81%
[2]; Day 5
  Zinc in serum, patients Above reference range: 3%
  Zinc in serum, patients Below reference range: 80%
  Zinc in serum, patients Within reference range: 17%
  Zinc in whole blood, patients Above reference range: 6%
  Zinc in whole blood, patients Below reference range: 17%
  Zinc in whole blood, patients Within reference range: 77%
[2]; Day 6
  Zinc in serum, patients Above reference range: 4%
  Zinc in serum, patients Below reference range: 68%
  Zinc in serum, patients Within reference range: 29%
  Zinc in whole blood, patients Above reference range: 4%
  Zinc in whole blood, patients Below reference range: 7%
  Zinc in whole blood, patients Within reference range: 89%
[2]; Day 7
  Zinc in serum, patients Above reference range: 0%
  Zinc in serum, patients Below reference range: 63%
  Zinc in serum, patients Within reference range: 38%
  Zinc in whole blood, patients Above reference range: 8%
  Zinc in whole blood, patients Below reference range: 8%
  Zinc in whole blood, patients Within reference range: 83%
[2]; Day 8
  Zinc in serum, patients Above reference range: 0%
  Zinc in serum, patients Below reference range: 50%
  Zinc in serum, patients Within reference range: 50%
  Zinc in whole blood, patients Above reference range: 8%
  Zinc in whole blood, patients Below reference range: 4%
  Zinc in whole blood, patients Within reference range: 88%
[2]; Day 9
  Zinc in serum, patients Above reference range: 4%
  Zinc in serum, patients Below reference range: 43%
  Zinc in serum, patients Within reference range: 52%
  Zinc in whole blood, patients Above reference range: 9%
  Zinc in whole blood, patients Below reference range: 0%
  Zinc in whole blood, patients Within reference range: 91%
[2]; Day 10
  Zinc in serum, patients Above reference range: 5%
  Zinc in serum, patients Below reference range: 33%
  Zinc in serum, patients Within reference range: 62%
  Zinc in whole blood, patients Above reference range: 5%
  Zinc in whole blood, patients Below reference range: 0%
  Zinc in whole blood, patients Within reference range: 95%
[2]; Day 11
  Zinc in serum, patients Above reference range: 16%
  Zinc in serum, patients Below reference range: 16%
  Zinc in serum, patients Within reference range: 68%
  Zinc in whole blood, patients Above reference range: 11%
  Zinc in whole blood, patients Below reference range: 0%
  Zinc in whole blood, patients Within reference range: 89%
[2]; Day 12
  Zinc in serum, patients Above reference range: 7%
  Zinc in serum, patients Below reference range: 20%
  Zinc in serum, patients Within reference range: 73%
  Zinc in whole blood, patients Above reference range: 7%
  Zinc in whole blood, patients Below reference range: 7%
  Zinc in whole blood, patients Within reference range: 87%
[2]; Day 13
  Zinc in serum, patients Above reference range: 14%
  Zinc in serum, patients Below reference range: 7%
  Zinc in serum, patients Within reference range: 79%
  Zinc in whole blood, patients Above reference range: 7%
  Zinc in whole blood, patients Below reference range: 7%
  Zinc in whole blood, patients Within reference range: 86%
[2]; Day 14
  Zinc in serum, patients Above reference range: 0%
  Zinc in serum, patients Below reference range: 8%
  Zinc in serum, patients Within reference range: 92%
  Zinc in whole blood, patients Above reference range: 0%
  Zinc in whole blood, patients Below reference range: 0%
  Zinc in whole blood, patients Within reference range: 100%
[2]; Day 15
  Zinc in serum, patients Above reference range: 0%
  Zinc in serum, patients Below reference range: 8%
  Zinc in serum, patients Within reference range: 92%
  Zinc in whole blood, patients Above reference range: 8%
  Zinc in whole blood, patients Below reference range: 0%
  Zinc in whole blood, patients Within reference range: 92%
[2]; Day 16
  Zinc in serum, patients Above reference range: 0%
  Zinc in serum, patients Below reference range: 9%
  Zinc in serum, patients Within reference range: 91%
  Zinc in whole blood, patients Above reference range: 9%
  Zinc in whole blood, patients Below reference range: 0%
  Zinc in whole blood, patients Within reference range: 91%
[2]; Day 17
  Zinc in serum, patients Above reference range: 10%
  Zinc in serum, patients Below reference range: 10%
  Zinc in serum, patients Within reference range: 80%
  Zinc in whole blood, patients Above reference range: 10%
  Zinc in whole blood, patients Below reference range: 0%
  Zinc in whole blood, patients Within reference range: 90%
[2]; Day 18
  Zinc in serum, patients Above reference range: 10%
  Zinc in serum, patients Below reference range: 10%
  Zinc in serum, patients Within reference range: 80%
  Zinc in whole blood, patients Above reference range: 20%
  Zinc in whole blood, patients Below reference range: 0%
  Zinc in whole blood, patients Within reference range: 80%
[2]; patients with normal whole blood zinc receiving zinc, even high administration
  Zinc level in the serum: scarcely influenced
[2]; [6]
  Zinc in serum, patients Above reference range: 14%
  Zinc in serum, patients Below reference range: 38%
  Zinc in serum, patients Within reference range: 49%
  Zinc in whole blood, patients Above reference range: 7%
  Zinc in whole blood, patients Below reference range: 5%
  Zinc in whole blood, patients Within reference range: 88%
[3]; humans
  Concentration in the cerebral spinal fluid relative to plasma concentration: a tenth
[3]; in vivo
  Portion excreted through the faeces: 90%
[3]; physiological conditions, roughly
  Portion resorbed from the nourishment: 20-30%

## O=S(=O)([O-])[O-].[Zn+2] [ZnSO4]
[1]; adults
  Dose considered deadly for adults: 5 g
[1]; in vivo
  Dose resulting in vomiting: 1 to 2 g
[1]; total 7.4 g zinc within 60 hours
  Outcome of inadvertent intravenous infusion: death

## O=[74Se]([O-])[O-].[Na+].[Na+] [[^74Se] sodium selenite]
[4]; intravenous 82 μg of selenium
  Dose excreted: 18%
[4]; peroral administration
  Absorbed dose excreted through the urine: 12%
